Test results reported in patent publication US5523457A, “Retinoid-like compounds” (Bristol-Myers Squibb Company, priority 1995, dated 1996).
Like-named read-outs stand apart in the source and are kept apart here.

How the values were obtained:
[1] = system: second primary tumors in squamous-cell carcinoma of the head and neck; conditions: Hong et al., N. Engl. J. Med., 1990; cited from earlier work
lung line L2987 = experiment: Cytotoxicity assay (alamarBlue cell viability), lung line L2987, experiment 2; assay type: cell-based; conditions: Homo sapiens
Method: FIG. 1 is the cytotoxicity dose response curves for lung line L2987. […] Briefly, the assayed involved plating 1000 cells per well in a volume of 120 μL in a 96 well flat-bottom dish (Corning) on day -1. Twenty-four hours later the appropriate dilution of a compound of formula I was added in a volume of 30 μL complete medium (final volume 150 μL). The plates were sealed with a plate sealer (Dynatech Labs) to prevent evaporation. On day 5 the mylar film was removed and 15 μL of sterile alamarBlue was added to each well and the cells were incubated 37° C. 5% CO2 for two hours. Using a Vmax plate reader the optical density for each well was determined having the […]. The 100% signal was determined for cells grown in complete medium containing only 0.5% DMSO. All wells were set-up in triplicate and the mean values were plotted in FIG. 1.

[2] = L2987 lung line, 1000 cells per well, compound added 24 h after plating, read on day 5 with alamarBlue, triplicate wells, read-out: IC50 values for L2987 experiment 2

| SMILES | IC50 (lung line L2987; [2]) | further results |
| --- | --- | --- |
| CC1=C(/C=C/C(C)=C/C=C/C(C)=C\C(=O)O)C(C)(C)CCC1 [Isotretinoin] |  | prevention of second primary tumors in squamous-cell carcinoma of the head and neck [1]: shown to be useful in prevention of second primary tumors |
| Cc1ccc(-c2cccc3ccc(C(=O)Nc4ccc(C(=O)O)cc4)cc23)cc1C [I^2' f, 4-[[[8-(3,4-Dimethylphenyl)-2-naphthalenyl]carbonyl]amino]benzoic acid] | 49 µM |  |
| O=C(O)c1ccc(NC(=O)c2ccc3cccc(-c4ccccc4)c3c2)cc1 [I^2' a, 4-[[(8-phenyl-2-naphthalenyl)carbonyl]amino]benzoic acid] | 72 µM |  |
| Cc1ccc(-c2cccc3ccc(C(=O)Nc4ccc(C(=O)O)cc4)cc23)c(C)c1 [I^2' g, 4-[[[8-(2,4 -Dimethylphenyl)-2-naphthalenyl]carbonyl]amino]benzoic acid] | 54 µM |  |
| CC1=C(/C=C/C(C)=C/C=C/C(C)=C/C(=O)O)C(C)(C)CCC1 [All trans retinoic acid, reference compound] |  | IC50 (lung line L2987; L2987, read-out: IC50 values for L2987 experiment 2): 68 µM |
| Cc1cc(C)cc(-c2cccc3ccc(C(=O)Nc4ccc(C(=O)O)cc4)cc23)c1 [I^2' b, 4-[[[8(3,5-Dimethylphenyl)-2-naphthalenyl]carbonyl]amino]benzoic acid] | 39 µM |  |
